# Results taken from patent US10800791B2, “Triazole ACC inhibitors and uses thereof” (Gilead Apollo, LLC, priority 2015, dated 2020).
# Like-named read-outs stand apart in the source and are kept apart here.
# Experiments:
# [1] = system: Fusarium virguliforme (Fv); assay: Growth inhibition assay of fungal pathogens, Fv; assay type: cell-based; details: 48 h, read-out: Concentration at 90% Inhibition Fv
# How it was run: (§1)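 Spore suspension in 17% V8 liquid media; cpd final 50/10/2 or 2/0.4/0.08 ppm, 2% DMSO. OD600 + visual, 24 & 48 h; % inhibition at 48 h vs 2% DMSO ctrl.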
# [2] = system: C. krusei; assay: Antifungal Activity Assay (broth microtiter MIC), C. krusei; assay type: cell-based, Candida krusei; details: Pichia kudriavzevii, ATCC6258, 48 h, ATCC 6258, 3 replicates, MIC recorded at 48 h, read-out: MIC, C. krusei ATCC 6258
# How it was run: (§2)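 Colonies from 24 h Sabouraud dextrose agar plates (35° C) are suspended in RPMI 1640+MOPS and diluted to give 2.5×10^3 CFU/mL in the wells. Plates are set up per CLSI M27-A3. Visual MIC is recorded at 48 h.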
# [3] = system: Fusarium moniliforme (Fm); assay: Growth inhibition assay of fungal pathogens, Fm; assay type: cell-based; details: Fusarium verticillioides, 48 h, Fusarium moniliforme, read-out: Concentration at 90% Inhibition Fm
# How it was run: as §1
# [4] = system: Collectotrichum graminicola (Cg); assay: Growth inhibition assay of fungal pathogens, Cg; assay type: cell-based; details: 48 h, Collectotrichum graminicola, read-out: Concentration at 90% Inhibition Cg
# How it was run: as §1
# [5] = system: Phytophthora capsici (Pc); assay: Growth inhibition assay of fungal pathogens, Pc; assay type: cell-based; details: 48 h, read-out: Concentration at 90% Inhibition Pc
# How it was run: as §1
# [6] = molecular target: fungal (fACC2) (UniProt Q00955); details: read-out: fACC2 (in vitro ACC2 Inhibition Assay, IC50), ADP-Glo, 5 nM ACC2, 20 μM ATP, 20 μM acetyl-CoA
# [7] = system: Rhizoctonia solani (Rs); assay: Growth inhibition assay of fungal pathogens, Rs; assay type: cell-based; details: 48 h, mycelial plugs, read-out: Concentration at 90% Inhibition Rs
# [8] = system: Septoria tritici (St); assay: Growth inhibition assay of fungal pathogens, St; assay type: cell-based; details: Zymoseptoria tritici, 48 h, Septoria tritici, read-out: Concentration at 90% Inhibition St
# How it was run: as §1
# [9] = molecular target: human (hACC2) (Homo sapiens, UniProt O00763); assay: In vitro ACC inhibition assay (ADP-Glo), hACC2; assay type: biochemical; details: 5 nM ACC2, 20 μM ATP, 20 μM acetyl-CoA
# Description: The detailed procedure is as follows. […] 10 μL ADP glo reagent was added. […] 20 μL kinase detection reagent was added.
# [10] = system: C. parapsilosis; assay: Antifungal Activity Assay (broth microtiter MIC), C. parapsilosis; assay type: cell-based, Candida parapsilosis; details: Lodderomyces parapsilosis, ATCC22019, 48 h, ATCC 22019, 3 replicates, MIC recorded at 48 h, read-out: MIC, C. parapsilosis ATCC 22019
# How it was run: as §2
# [11] = growth inhibition at 48 hours vs 2% DMSO control
# [12] = growth inhibition vs 2% DMSO control at 48 hours
# Chain of human (hACC2) (O00763 whole entry): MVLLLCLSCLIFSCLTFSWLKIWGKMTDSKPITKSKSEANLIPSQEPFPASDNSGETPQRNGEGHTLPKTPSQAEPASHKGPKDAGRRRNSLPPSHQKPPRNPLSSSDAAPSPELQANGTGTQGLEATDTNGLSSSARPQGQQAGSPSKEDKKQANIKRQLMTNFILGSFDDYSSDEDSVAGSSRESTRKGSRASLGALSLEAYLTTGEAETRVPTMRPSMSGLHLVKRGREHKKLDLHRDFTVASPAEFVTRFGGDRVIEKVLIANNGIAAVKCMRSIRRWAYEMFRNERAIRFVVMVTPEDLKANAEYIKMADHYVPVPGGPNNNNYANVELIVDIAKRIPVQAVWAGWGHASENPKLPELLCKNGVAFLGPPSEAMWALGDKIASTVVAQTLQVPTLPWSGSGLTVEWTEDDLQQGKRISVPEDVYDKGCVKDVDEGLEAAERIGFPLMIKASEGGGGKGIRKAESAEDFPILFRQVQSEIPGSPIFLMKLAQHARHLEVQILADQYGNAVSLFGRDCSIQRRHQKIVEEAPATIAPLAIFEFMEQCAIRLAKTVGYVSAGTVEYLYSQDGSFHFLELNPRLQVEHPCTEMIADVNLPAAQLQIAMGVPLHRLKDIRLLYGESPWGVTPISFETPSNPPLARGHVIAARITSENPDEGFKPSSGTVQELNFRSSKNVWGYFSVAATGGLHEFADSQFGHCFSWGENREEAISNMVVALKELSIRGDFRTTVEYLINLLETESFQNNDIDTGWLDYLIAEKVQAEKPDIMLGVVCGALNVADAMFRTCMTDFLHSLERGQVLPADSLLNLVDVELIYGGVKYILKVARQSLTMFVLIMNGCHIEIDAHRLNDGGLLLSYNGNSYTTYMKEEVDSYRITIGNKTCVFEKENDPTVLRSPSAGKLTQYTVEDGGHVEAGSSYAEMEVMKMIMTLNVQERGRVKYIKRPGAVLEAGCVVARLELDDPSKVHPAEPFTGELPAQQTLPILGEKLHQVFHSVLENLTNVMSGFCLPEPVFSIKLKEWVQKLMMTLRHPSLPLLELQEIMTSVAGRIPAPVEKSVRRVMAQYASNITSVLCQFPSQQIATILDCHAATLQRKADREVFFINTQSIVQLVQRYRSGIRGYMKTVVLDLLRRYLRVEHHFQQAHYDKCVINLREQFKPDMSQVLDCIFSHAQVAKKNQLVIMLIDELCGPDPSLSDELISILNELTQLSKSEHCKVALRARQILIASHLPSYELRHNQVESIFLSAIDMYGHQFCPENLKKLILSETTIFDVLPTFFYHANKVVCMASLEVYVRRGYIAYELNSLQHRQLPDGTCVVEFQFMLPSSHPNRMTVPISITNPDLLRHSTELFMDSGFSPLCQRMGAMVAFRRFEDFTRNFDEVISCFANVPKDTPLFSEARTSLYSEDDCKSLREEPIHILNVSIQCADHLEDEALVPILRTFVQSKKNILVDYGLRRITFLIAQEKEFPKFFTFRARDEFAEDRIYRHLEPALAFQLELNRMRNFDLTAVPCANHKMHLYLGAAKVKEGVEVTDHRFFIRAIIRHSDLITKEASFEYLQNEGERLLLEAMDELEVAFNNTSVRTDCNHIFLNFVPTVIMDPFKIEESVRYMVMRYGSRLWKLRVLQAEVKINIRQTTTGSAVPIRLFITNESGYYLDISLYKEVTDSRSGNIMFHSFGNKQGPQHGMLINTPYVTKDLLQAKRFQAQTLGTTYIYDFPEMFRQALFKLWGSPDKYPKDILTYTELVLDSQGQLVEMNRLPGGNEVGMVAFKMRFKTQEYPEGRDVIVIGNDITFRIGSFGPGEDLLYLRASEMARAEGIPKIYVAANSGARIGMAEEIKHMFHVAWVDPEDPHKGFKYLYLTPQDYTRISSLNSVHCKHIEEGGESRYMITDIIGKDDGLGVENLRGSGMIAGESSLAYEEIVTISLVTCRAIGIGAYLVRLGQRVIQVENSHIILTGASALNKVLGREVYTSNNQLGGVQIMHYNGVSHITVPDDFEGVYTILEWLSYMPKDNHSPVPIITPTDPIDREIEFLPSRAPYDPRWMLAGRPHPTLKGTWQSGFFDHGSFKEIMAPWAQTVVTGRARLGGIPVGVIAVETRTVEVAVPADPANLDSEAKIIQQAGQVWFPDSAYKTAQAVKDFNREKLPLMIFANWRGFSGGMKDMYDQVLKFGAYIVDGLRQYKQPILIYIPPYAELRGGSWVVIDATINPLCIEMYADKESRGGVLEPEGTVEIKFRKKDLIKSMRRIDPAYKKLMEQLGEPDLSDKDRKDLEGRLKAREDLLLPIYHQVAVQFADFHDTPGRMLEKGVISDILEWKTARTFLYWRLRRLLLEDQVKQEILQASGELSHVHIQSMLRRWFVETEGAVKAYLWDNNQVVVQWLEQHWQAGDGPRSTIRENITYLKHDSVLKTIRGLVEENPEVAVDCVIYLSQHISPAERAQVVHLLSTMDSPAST
# Chain of fungal (fACC2) (Q00955 whole entry): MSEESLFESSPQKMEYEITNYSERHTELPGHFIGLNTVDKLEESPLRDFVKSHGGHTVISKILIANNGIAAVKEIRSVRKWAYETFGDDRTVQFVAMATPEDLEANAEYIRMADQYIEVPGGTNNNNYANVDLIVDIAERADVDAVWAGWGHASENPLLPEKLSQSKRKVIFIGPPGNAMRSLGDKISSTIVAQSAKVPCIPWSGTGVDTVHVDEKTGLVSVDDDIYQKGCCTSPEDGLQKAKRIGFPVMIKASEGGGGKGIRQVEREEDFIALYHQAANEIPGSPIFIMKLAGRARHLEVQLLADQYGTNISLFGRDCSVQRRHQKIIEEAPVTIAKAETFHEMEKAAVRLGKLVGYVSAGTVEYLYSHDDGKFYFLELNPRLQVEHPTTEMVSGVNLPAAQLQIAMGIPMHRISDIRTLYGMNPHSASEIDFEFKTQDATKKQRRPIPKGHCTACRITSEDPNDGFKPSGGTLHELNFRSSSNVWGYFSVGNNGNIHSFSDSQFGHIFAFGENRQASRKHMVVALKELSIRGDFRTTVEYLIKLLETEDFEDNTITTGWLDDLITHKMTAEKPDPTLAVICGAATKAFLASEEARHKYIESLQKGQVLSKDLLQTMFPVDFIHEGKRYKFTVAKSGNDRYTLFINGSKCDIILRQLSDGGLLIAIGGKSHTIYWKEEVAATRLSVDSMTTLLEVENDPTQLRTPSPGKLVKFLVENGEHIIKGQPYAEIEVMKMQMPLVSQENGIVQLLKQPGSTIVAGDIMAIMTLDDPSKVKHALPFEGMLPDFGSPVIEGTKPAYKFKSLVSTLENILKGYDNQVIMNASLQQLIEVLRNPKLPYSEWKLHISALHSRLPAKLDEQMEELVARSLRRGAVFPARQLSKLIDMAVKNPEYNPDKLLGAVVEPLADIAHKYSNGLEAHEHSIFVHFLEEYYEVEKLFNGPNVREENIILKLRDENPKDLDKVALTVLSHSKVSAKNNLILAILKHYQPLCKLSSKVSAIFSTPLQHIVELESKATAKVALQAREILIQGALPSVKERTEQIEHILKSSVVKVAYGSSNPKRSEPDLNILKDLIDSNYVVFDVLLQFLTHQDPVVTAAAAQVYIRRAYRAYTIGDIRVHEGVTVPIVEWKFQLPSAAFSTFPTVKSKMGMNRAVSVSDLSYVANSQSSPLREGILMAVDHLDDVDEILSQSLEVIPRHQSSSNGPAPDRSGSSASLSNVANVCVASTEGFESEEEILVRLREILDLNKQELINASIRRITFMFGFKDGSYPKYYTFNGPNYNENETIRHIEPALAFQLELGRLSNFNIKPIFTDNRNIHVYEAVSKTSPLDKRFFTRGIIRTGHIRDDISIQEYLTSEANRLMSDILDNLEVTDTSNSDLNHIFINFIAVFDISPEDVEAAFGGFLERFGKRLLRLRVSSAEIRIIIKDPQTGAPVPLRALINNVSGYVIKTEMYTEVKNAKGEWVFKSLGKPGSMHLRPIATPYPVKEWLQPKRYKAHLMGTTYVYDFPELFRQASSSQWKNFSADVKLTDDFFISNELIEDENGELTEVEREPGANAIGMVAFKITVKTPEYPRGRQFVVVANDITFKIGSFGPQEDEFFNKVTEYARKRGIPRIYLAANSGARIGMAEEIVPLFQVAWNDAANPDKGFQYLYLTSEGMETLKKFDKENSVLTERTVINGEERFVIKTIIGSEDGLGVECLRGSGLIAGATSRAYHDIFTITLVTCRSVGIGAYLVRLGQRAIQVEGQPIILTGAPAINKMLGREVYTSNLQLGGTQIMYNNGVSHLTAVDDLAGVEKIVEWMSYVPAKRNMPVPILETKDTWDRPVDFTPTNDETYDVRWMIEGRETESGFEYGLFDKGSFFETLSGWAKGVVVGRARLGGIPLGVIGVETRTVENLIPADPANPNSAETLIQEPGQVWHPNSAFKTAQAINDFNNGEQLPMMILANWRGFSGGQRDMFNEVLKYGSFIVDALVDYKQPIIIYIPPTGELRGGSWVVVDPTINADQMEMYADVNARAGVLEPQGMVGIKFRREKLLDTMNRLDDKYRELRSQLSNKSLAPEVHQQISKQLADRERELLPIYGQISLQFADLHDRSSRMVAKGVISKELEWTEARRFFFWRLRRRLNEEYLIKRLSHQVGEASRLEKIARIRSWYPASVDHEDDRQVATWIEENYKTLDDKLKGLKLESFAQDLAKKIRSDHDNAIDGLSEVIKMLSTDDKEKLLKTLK
Structure (SMILES),"IC90 [1, 11] [µg/mL]","IC90 [1, 12] [µg/mL]",MIC ([2]; Table 3a) [µg/mL],MIC ([2]; Table 3b (additional results)) [µg/mL],"IC90 [3, 11] [µg/mL]","IC90 [3, 12] [µg/mL]","IC90 [4, 11] [µg/mL]","IC90 [4, 12] [µg/mL]","IC90 [5, 11] [µg/mL]","IC90 [5, 12] [µg/mL]",IC50 ([6]; Table 2a) [nM],"IC50 ([6]; Table 2b, additional results) [nM]","IC90 [7, 11] [µg/mL]","IC90 [7, 12] [µg/mL]","IC90 [8, 11] [µg/mL]","IC90 [8, 12] [µg/mL]",IC50 ([9]; Table 2a) [nM],"IC50 ([9]; Table 2b, additional results) [nM]",MIC ([10]; Table 3a) [µg/mL],MIC ([10]; Table 3b (additional results)) [µg/mL]
"COc1ccc(F)cc1[C@H](Cn1c(=O)n(C(C)(C)C(=O)N2CC=CC2)c(=O)c2c(C)c(-n3nccn3)sc21)OC[C@@H](C)O [Compound I-63, 3-(1-(2,5-dihydro-1H-pyrrol-1-yl)-2-methyl-1-oxopropan-2-yl)-1-((R)-2-(5-fluoro-2-methoxyphenyl)-2-((R)-2-hydroxypropoxy)ethyl)-5-methyl-6-(2H-1,2,3-triazol-2-yl)thieno[2,3-d]pyrimidine-2,4(1H,3H)-dione]",0.4,0.4,0.25 to 1,> 4.01,0.08,0.08,0.4,0.4,> 50,> 50,0.4 to 1,0.3 to 1,0.4,0.4,> 50,> 50,5 to 10,5 to 10,1.1 to 2,2.01 to 4
"COc1ccc(F)cc1[C@H](Cn1c(=O)n([C@H](C)C(=O)N(C)C(C)C)c(=O)c2c(C)c(-n3nccn3)sc21)OCCO [Compound I-85, (R)-2-(1-((R)-2-(5-fluoro-2-methoxyphenyl)-2-(2-hydroxy-ethoxy)ethyl)-5-methyl-2,4-dioxo-6-(2H-1,2,3-triazol-2-yl)-1,4-dihydro-thieno[2,3-d]pyrimidin-3(2H)-yl)-N-isopropyl-N-methylpropanamide]",0.4,0.4,0.25 to 1,1.01 to 2,0.08,0.08,0.08,0.08,2,2,0.4 to 1,0.3 to 1,0.08,0.08,2,10,10 to 40,10 to 40,0.25 to 1,2.01 to 4
COc1ccc(F)cc1[C@H](Cn1c(=O)n(C(C)(C)C(N)=O)c(=O)c2c(C)c(-n3nccn3)sc21)OC1CCOCC1 [Compound I-1],2,2,0.25 to 1,0.25 to 1,0.4,0.4,2,2,10,> 50,1 to 5,1 to 5,2,10,> 50,> 50,5 to 10,5 to 10,1.1 to 2,2.01 to 4
